Experiment [1] deals with T1, Axl (Homo sapiens (Human), UniProt P30530). As to the kind of experiment: Axl binding assay. The method, then: Binding of the tracer to the kinase is detected using an EU-labeled anti-tag antibody. […] Binding of an inhibitor to the kinase competes for binding with the tracer, resulting in a loss of FRET-signal. At first a compound according to formula (I) was diluted in 20 mM Hepes pH 8.0, 1 mM DTT, 10 mM MgCl2 and 0.01% Brij35.

Experiment [2] concerns the target T1, Axl. As to the kind of experiment: Cellular Axl phosphorylation assay. In kind it is cell-based. The conditions noted are these: HEK293 cells transfected with Axl cDNA, 1 hour incubation. The method in brief: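 Transiently Axl-transfected HEK293 cells, with a vector-only negative control, were treated with compound for 1 hour on the day after medium change. Axl phosphorylation was quantified by mesoscale detection.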

Where only a bound is given, the exact number is not on record here.

T1 sequence (P30530 26-894): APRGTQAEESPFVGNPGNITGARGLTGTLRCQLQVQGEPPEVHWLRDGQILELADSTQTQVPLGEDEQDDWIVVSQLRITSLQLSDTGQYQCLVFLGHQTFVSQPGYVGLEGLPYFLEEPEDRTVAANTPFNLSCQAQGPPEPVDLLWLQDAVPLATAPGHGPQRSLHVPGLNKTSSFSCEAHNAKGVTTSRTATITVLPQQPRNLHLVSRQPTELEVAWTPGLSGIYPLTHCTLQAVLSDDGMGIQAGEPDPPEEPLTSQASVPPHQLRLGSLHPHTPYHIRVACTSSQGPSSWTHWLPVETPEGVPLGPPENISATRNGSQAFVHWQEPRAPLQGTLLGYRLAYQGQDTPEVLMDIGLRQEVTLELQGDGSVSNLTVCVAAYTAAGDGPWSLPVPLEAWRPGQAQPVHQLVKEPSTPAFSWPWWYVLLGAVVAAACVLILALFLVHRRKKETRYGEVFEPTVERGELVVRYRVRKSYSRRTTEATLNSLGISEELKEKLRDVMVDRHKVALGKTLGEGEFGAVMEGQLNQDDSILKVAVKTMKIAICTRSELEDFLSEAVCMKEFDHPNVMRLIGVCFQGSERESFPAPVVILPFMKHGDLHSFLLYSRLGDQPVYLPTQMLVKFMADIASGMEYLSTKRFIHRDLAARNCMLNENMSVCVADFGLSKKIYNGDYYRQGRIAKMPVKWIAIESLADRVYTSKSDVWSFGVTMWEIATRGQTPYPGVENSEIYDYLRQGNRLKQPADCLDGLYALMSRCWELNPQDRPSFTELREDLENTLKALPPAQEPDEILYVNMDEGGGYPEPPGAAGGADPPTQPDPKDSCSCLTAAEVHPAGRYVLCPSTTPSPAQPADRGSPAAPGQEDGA

What is called IC50 is the point on the concentration scale where inhibition reaches its midpoint. Low values mean greater potency, high ones weaker potency. Regarding `CCOc1cn(-c2ccc(F)cc2C)nc1C(=O)Nc1ccc(Oc2ccnc3cc(OC)c(OC)cc23)cc1C` [Example 95, N-(4-((6,7-dimethoxyquinolin-4-yl)oxy)-2-methylphenyl)-4-ethoxy-1-(4-fluoro-2-methylphenyl)-1H-pyrazole-3-carboxamide], the results for the IC50 on Axl [1] and against Axl [2] were below 500 nM and 500 to 5000 nM, respectively.
For `CCOc1cn(-c2ccc(F)cc2C)nc1C(=O)Nc1ccc(Oc2ccnc3cc(OCC4CCN(CC)CC4)c(OC)cc23)c(F)c1` [Example 82, 4-ethoxy-N-[4-[[7-[(1-ethyl-4-piperidyl)methoxy]-6-methoxy-4-quinolyl]oxy]-3-fluoro-phenyl]-1-(4-fluoro-2-methyl-phenyl)pyrazole-3-carboxamide], in that order: below 500 nM and below 500 nM.
For `CCOc1cn(-c2ccc(OC)cc2C)nc1C(=O)Nc1ccc(Oc2ccnc3cc(OC)c(OC)cc23)cn1` [Example 89, N-(5-((6,7-dimethoxyquinolin-4-yl)oxy)pyridin-2-yl)-4-ethoxy-1-(4-methoxy-2-methylphenyl)-1H-pyrazole-3-carboxamide], in that order: below 500 nM and below 500 nM.
For `CCOc1cn(-c2ccc(F)cc2)nc1C(=O)Nc1ccc(Oc2ccnc3cc(OC)c(OC)cc23)c(F)c1` [Example 16, N-[4-[(6,7-dimethoxy-4-quinolyl)oxy]-3-fluoro-phenyl]-4-ethoxy-1-(4-fluorophenyl)pyrazole-3-carboxamide], in that order: below 500 nM and below 500 nM.
Regarding `CCOc1cn(-c2ccc(F)cc2CCN(C)C)nc1C(=O)Nc1ccc(Oc2ccnc3cc(OC)c(OC)cc23)c(F)c1` [Example 37, N-[4-[(6,7-dimethoxy-4-quinolyl)oxy]-3-fluoro-phenyl]-1-[2-(2-dimethylaminoethyl)-4-fluoro-phenyl]-4-ethoxy-pyrazole-3-carboxamide], the IC50 on Axl [1] and against Axl [2] was below 500 nM in each case.
Consider `CCOc1cn(-c2ccc(F)c(OC)c2)nc1C(=O)Nc1ccc(Oc2ccnc3cc(OC)c(OC)cc23)c(F)c1` [Example 96, N-(4-((6,7-dimethoxyquinolin-4-yl)oxy)-3-fluorophenyl)-4-ethoxy-1-(4-fluoro-3-methoxyphenyl)-1H-pyrazole-3-carboxamide], for which the IC50 on Axl [1] and at Axl [2] was below 500 nM in each case.
Take `CCOc1cn(-c2ccc(F)c(OC)c2)nc1C(=O)Nc1ccc(Oc2ccnc3cc(OC)c(OC)cc23)cn1` [Example 97, N-(5-((6,7-dimethoxyquinolin-4-yl)oxy)pyridin-2-yl)-4-ethoxy-1-(4-fluoro-3-methoxyphenyl)-1H-pyrazole-3-carboxamide]: the IC50 at Axl [1] and at Axl [2] was below 500 nM in each case.
Take `CCOc1cn(-c2ccc(F)cc2)nc1C(=O)Nc1ccc(Oc2ccnc3cc(OCCCN)c(OC)cc23)c(F)c1` [Example 54, N-[4-[[7-(3-aminopropoxy)-6-methoxy-4-quinolyl]oxy]-3-fluoro-phenyl]-4-ethoxy-1-(4-fluorophenyl)pyrazole-3-carboxamide]: the IC50 at Axl [1] and at Axl [2] was below 500 nM each time.
For `COc1cc2nccc(Oc3ccc(NC(=O)c4nn(-c5ccc(F)cc5)cc4CCN(C)C)nc3)c2cc1OC` [Example 87, N-[5-[(6,7-dimethoxy-4-quinolyl)oxy]-2-pyridyl]-4-(2-dimethylaminoethyl)-1-(4-fluorophenyl)pyrazole-3-carboxamide], the IC50 is 500 to 5000 nM at Axl [1] and below 500 nM on Axl [2].
For `COc1cc2nccc(Oc3ccc(NC(=O)c4nn(-c5ccc(F)cc5)cc4OCC4CC4)cc3)c2cc1OC` [Example 26, 4-(cyclopropylmethoxy)-N-[4-[(6,7-dimethoxy-4-quinolyl)oxy]phenyl]-1-(4-fluorophenyl)pyrazole-3-carboxamide], in that order: below 500 nM and below 500 nM.
The matching figures for `CCOc1cn(-c2ccc(OC)cc2C)nc1C(=O)Nc1ccc(Oc2ccnc3cc(OC)c(OC)cc23)c(F)c1` [Example 91, N-(4-((6,7-dimethoxyquinolin-4-yl)oxy)-3-fluorophenyl)-4-ethoxy-1-(4-methoxy-2-methylphenyl)-1H-pyrazole-3-carboxamide]: below 500 nM and below 500 nM.
The matching figures for `CCOc1oc(-c2ccc(F)cc2)nc1C(=O)Nc1ccc(Oc2ccnc3cc(OCCCN4CCN(C)CC4)c(OC)cc23)c(F)c1` [Example 63, 5-ethoxy-N-[3-fluoro-4-[[6-methoxy-7-[3-(4-methylpiperazin-1-yl)propoxy]-4-quinolyl]oxy]phenyl]-2-(4-fluorophenyl)oxazole-4-carboxamide]: below 500 nM and below 500 nM.
With `COc1cc2nccc(Oc3ccc(NC(=O)c4nn(-c5ccc(F)cc5)cc4OC(C)C)cc3)c2cc1OC` [Example 25, N-[4-[(6,7-dimethoxy-4-quinolyl)oxy]phenyl]-1-(4-fluorophenyl)-4-isopropoxy-pyrazole-3-carboxamide], the IC50 on Axl [1] and against Axl [2] was below 500 nM in each case.
On to `CCOc1cn(-c2ccc(F)cc2C)nc1C(=O)Nc1ccc(Oc2ccnc3cc(OCCCN4CCNCC4)c(OC)cc23)c(F)c1` [Example 69, 4-ethoxy-N-[3-fluoro-4-[[6-methoxy-7-(3-piperazin-1-ylpropoxy)-4-quinolyl]oxy)phenyl]-1-(4-fluoro-2-methyl-phenyl)pyrazole-3-carboxamide], for which the concentration for half-maximal inhibition (IC50) on Axl [1] and against Axl [2] was below 500 nM throughout.
For `COc1cc2c(Oc3ccc(NC(=O)c4nn(-c5ccc(F)cc5)cc4Br)cc3F)ccnc2cc1OCC1CCNCC1` [Example 76, 4-bromo-N-[3-fluoro-4-[[6-methoxy-7-(4-piperidylmethoxy)-4-quinolyl]oxy]phenyl]-1-(4-fluorophenyl)pyrazole-3-carboxamide], the IC50 on Axl [1] and on Axl [2] was below 500 nM in each case.
For the molecule `COc1cc2nccc(Oc3ccc(NC(=O)c4nn(-c5ccc(F)cc5)cc4OC(C)C)cc3F)c2cc1OC` [Example 21, N-[4-[(6,7-dimethoxy-4-quinolyl)oxy]-3-fluoro-phenyl]-1-(4-fluorophenyl)-4-isopropoxy-pyrazole-3-carboxamide], the IC50 on Axl [1] and against Axl [2] was below 500 nM in each case.
Consider `CCOc1cn(-c2ccc(F)cc2Cl)nc1C(=O)Nc1ccc(Oc2ccnc3cc(OCCCN4CCOCC4)c(OC)cc23)c(F)c1` [Example 47, 1-(2-chloro-4-fluoro-phenyl)-4-ethoxy-N-[3-fluoro-4-[[6-methoxy-7-(3-morpholinopropoxy)-4-quinolyl]oxy]phenyl]pyrazole-3-carboxamide], for which the IC50 on Axl [1] and against Axl [2] was below 500 nM in each case.
On to `CCOc1cn(-c2ccc(F)cc2O)nc1C(=O)Nc1ccc(Oc2ccnc3cc(OC)c(OC)cc23)cn1` [Example 104, N-(5-((6,7-dimethoxyquinolin-4-yl)oxy)pyridin-2-yl)-4-ethoxy-1-(4-fluoro-2-hydroxyphenyl)-1H-pyrazole-3-carboxamide], for which the IC50 on Axl [1] and at Axl [2] was below 500 nM each time.
On to `COc1cc2c(Oc3ccc(NC(=O)c4nc(Br)cs4)nc3)ccnc2cc1OCC1CCNCC1` [Example 102, 4-bromo-N-(5-((6-methoxy-7-(piperidin-4-ylmethoxy)quinolin-4-yl)oxy)pyridin-2-yl)thiazole-2-carboxamide], for which the IC50 on Axl [1] and on Axl [2] was below 500 nM each time.
For `CCOc1cn(-c2ccc(F)cc2C)nc1C(=O)Nc1ccc(Oc2ccnc3cc(OC)c(OC)cc23)cc1OC` [Example 94, N-(4-((6,7-dimethoxyquinolin-4-yl)oxy)-2-methoxyphenyl)-4-ethoxy-1-(4-fluoro-2-methylphenyl)-1H-pyrazole-3-carboxamide], the IC50 on Axl [1] and against Axl [2] was below 500 nM throughout.
As for `COc1cc2c(Oc3ccc(NC(=O)c4nn(-c5ccc(F)cc5)cc4OC)cc3F)ccnc2cc1OCC1CCNCC1` [Example 73, N-[3-fluoro-4-[[6-methoxy-7-(4-piperidylmethoxy)-4-quinolyl]oxy]phenyl]-1-(4-fluorophenyl)-4-methoxy-pyrazole-3-carboxamide], the IC50 on Axl [1] and against Axl [2] was below 500 nM each time.
As to `COCCOc1cn(-c2ccc(F)cc2)nc1C(=O)Nc1ccc(Oc2ccnc3cc(OCCCN4CCNCC4)c(OC)cc23)c(F)c1` [Example 70, N-[3-fluoro-4-[[6-methoxy-7-(3-piperazin-1-ylpropoxy)-4-quinolyl]oxy]phenyl]-1-(4-fluorophenyl)-4-(2-methoxyethoxy)pyrazole-3-carboxamide], the IC50 on Axl [1] and on Axl [2] was below 500 nM each time.
For `COc1cc2c(Oc3ccc(NC(=O)c4cc(C)n(C)n4)cc3F)ccnc2cc1OCCCN1CCOCC1` [Example 42, N-[3-fluoro-4-[[6-methoxy-7-(3-morpholinopropoxy)-4-quinolyl]oxy]phenyl]-1,5-dimethyl-pyrazole-3-carboxamide], the IC50 at Axl [1] and against Axl [2] was below 500 nM throughout.

Values taken from patent US8999982B2, “Pharmaceutically active compounds as Axl inhibitors” (Lead Discovery Center GmbH, priority 2010, dated 2015).
